Reference: the NIST ThermoML archive (doi:10.1016/j.fluid.2007.07.070)
Numbers after ± are expanded uncertainties.

Conditions: Crystal; DTA

In the case of `O=C1c2ccccc2C(=O)C1c1nc2ccccc2cc1O` [1H-indene-1,3(2H)-dione, 2-(3-hydroxy-2-quinolinyl)-], the Normal melting temperature is reported as 260.6 ± 0.5 °C.
